Experimental data reported in ChEMBL document CHEMBL6109160, “Novel Cyclic Peptides as Interleukin-23 Inhibitor for Treating Inflammatory Disorders” (ACS Med Chem Lett, 2025).

Target: T1, Interleukin-23 receptor (Homo sapiens, UniProt Q5VWK5)
T1 sequence (Q5VWK5 whole entry): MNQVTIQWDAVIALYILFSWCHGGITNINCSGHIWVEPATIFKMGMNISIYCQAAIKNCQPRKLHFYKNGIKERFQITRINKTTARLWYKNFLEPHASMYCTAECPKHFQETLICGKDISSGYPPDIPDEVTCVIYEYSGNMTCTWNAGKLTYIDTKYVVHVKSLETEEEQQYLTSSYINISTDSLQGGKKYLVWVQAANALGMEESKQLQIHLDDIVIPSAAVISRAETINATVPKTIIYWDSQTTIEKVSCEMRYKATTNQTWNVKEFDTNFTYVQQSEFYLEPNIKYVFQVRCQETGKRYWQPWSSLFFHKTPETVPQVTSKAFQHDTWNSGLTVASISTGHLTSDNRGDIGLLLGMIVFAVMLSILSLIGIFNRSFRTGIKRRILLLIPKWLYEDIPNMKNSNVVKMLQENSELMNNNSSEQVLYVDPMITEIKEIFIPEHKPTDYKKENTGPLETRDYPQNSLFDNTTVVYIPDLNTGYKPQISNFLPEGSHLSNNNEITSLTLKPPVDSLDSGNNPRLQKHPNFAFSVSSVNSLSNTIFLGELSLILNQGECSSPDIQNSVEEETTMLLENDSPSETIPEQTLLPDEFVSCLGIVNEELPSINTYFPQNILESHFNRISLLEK
Assay: Binding affinity to Interleukin-23 receptor in HEK293 cells transfected with firefly luciferase reporter incubated for 5 hrs by luminescence based analysis
Type: cell-based

CC(=O)NCCCC[C@@H]1NC(=O)[C@H](Cc2c[nH]c3c(C)cccc23)NC(=O)[C@H]([C@@H](C)O)NC(=O)[C@H](CC(N)=O)NC(=O)[C@@H](NC(=O)CCOCCOCC[N+](C)(C)C)C(C)(C)SSC(C)(C)[C@@H](C(=O)N[C@@H](Cc2ccc(OCCN)cc2)C(=O)N[C@@H](Cc2ccc3ccccc3c2)C(=O)NC2(C(=O)N[C@@H](CCC(=O)O)C(=O)N[C@@H](CC(N)=O)C(=O)N[C@@H](Cc3cccnc3)C(=O)N(C)CC(N)=O)CCOCC2)NC1=O
IC50: 12 nM
